The record followed here is ChEMBL document CHEMBL1201862, “PubChem BioAssay data set” (2004).

Test systems include MDA-MB-435; MDA-N; DMS-114; LXFL 529; M19-MEL; DMS-273; SNB-78; HOP-18.
Assay in all cases: DTP human tumour cell line panel, 48 h

Structures are written as SMILES.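 A five-concentration, 48-hour dose response in 96-well plates underlies each endpoint, interpolated linearly between surrounding concentrations. GI50 is the concentration that inhibits growth by half.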 The source made the active and inactive calls. Rule as the data show it: active = GI50 up to about 1.1 µM and inactive = higher. Bounds are passed on as bounds.

Turning to `COC(=O)[C@H]1C=NN[C@@H]1C(=O)N1[C@H]2CC3CC[C@@]2(CS1(=O)=O)C3(C)C`, in the assay with MDA-MB-435, the GI50 – broadly, the concentration that inhibits growth by half – is > 100 µM (inactive).

On to `C=CCOC(=O)C1=C(CCC[C@@H](C)O[Si](C)(C)C(C)(C)C)N=C(N)N2[C@H](CCO)CC[C@@H]12`, for which the GI50 in the assay on MDA-N was 17 µM (inactive); in the assay with MDA-MB-435, 14.7 µM (inactive).

Regarding `O=C1C(Cl)N(c2cccc([N+](=O)[O-])c2)C1c1c[nH]c2ccccc12` (centres undefined), the GI50 with DMS-114 was 15.1 µM (inactive); in the assay with LXFL 529, 6.25 µM (inactive); with M19-MEL, 18.1 µM (inactive).

`CCOC(=O)/C=C/CC(C)(C)COC(C)=O`: the results for the GI50 in the assay on MDA-N and in the assay on MDA-MB-435 were 7.48 µM (inactive) and > 10 µM (inactive), respectively.

For the compound `CC1=C(O)C(=O)[C@@H]2O[C@@H]2C1=O`, the GI50 is 10.3 µM (inactive) in the assay on DMS-114; 22.8 µM (inactive) in the assay with DMS-273; 15.6 µM (inactive) with SNB-78; 11.2 µM (inactive) with M19-MEL; 12.5 µM (inactive) in the assay with HOP-18.

`COc1ccc(-c2c(C#N)c(N)n(C3OCC(O)C(O)C3O)c(=S)c2C#N)cc1` (centres undefined): the GI50 in the assay with MDA-N and in the assay on MDA-MB-435 was > 100 µM (inactive) each time.

With `COc1ccc(N[S+]([O-])C2CCCCC2)cc1` (centres undefined), the GI50 in the assay with MDA-MB-435 was > 100 µM (inactive).

Consider `Oc1ccc(/C=N/N=c2\[nH][nH]/c(=N\N=C\c3ccc(O)cc3O)c3ccccc23)c(O)c1`, for which the values for the GI50 in the assay with MDA-N and in the assay on MDA-MB-435 were 0.228 µM (active) and 0.314 µM (active), respectively.

Consider `O=C(O)c1c(CC(Cc2ccc3c(c2)CCC3)C(=O)O)ccc2c1CCC2` (centres undefined), for which the GI50 with MDA-N and in the assay with MDA-MB-435 was > 100 µM (inactive) throughout.

As for `C/C(=C1/N=C(c2ccccc2)OC1=O)c1ccccc1`, the figures for the GI50 in the assay with MDA-N and in the assay on MDA-MB-435 were > 100 µM (inactive) and 87.3 µM (inactive), respectively.

For the compound `Cc1cc(S(=O)(=O)Nc2nc3ccccc3nc2-c2cccc([N+](=O)[O-])c2)c(S)cc1Cl`, the results for the GI50 in the assay on MDA-N and with MDA-MB-435 were 20.5 µM (inactive) and 19.8 µM (inactive), respectively.

Turning to `CC(=O)N(C(C)=O)n1c(Cc2ccc(C)cc2)nn(C(C)=O)c1=O`, the GI50 in the assay with MDA-N and in the assay with MDA-MB-435 was > 100 µM (inactive) each time.

As to `COc1cc(OC)c(/C=N/N=C(\N)NO)c(OC)c1`, the GI50 in the assay on MDA-N was > 100 µM (inactive); in the assay with MDA-MB-435, 49.8 µM (inactive).

As for `CC1(C)CC(=O)c2c(nc3ccc4ccccc4c3c2-c2ccc(NC(=O)CCCC(=O)Nc3ccc(-c4c5c(nc6ccc7ccccc7c46)CC(C)(C)CC5=O)cc3)cc2)C1`, the GI50 with MDA-N and in the assay with MDA-MB-435 was > 100 µM (inactive) in each case.

Regarding `Brc1ccc(/N=N/N2CCCCC2)cc1`, the GI50 with MDA-N was 57.3 µM (inactive); with MDA-MB-435, 34.3 µM (inactive).

`CCOC(=O)COc1cc(-c2ccccc2F)nc2cc3c(cc12)OCO3`: the GI50 in the assay with MDA-N and in the assay with MDA-MB-435 was > 100 µM (inactive) in each case.

For `CCOC(=O)c1ccc(/N=C2\SC(=S)N(c3ccc(F)cc3)\C2=N/c2ccc(C(=O)OCC)cc2)cc1`, the GI50 was 12.9 µM (inactive) in the assay with MDA-N and 17.9 µM (inactive) in the assay on MDA-MB-435.

For the compound `CC1=CC(=O)c2ccc(C)cc2C1=O` [CHIMAPHILIN], the GI50 in the assay on MDA-N is 0.394 µM (active); with MDA-MB-435 it was 2.49 µM (inactive).

`CC1CN=C(N(C)C(=O)Nc2ccc(Cl)cc2)S1` (centres undefined): the GI50 in the assay with MDA-N is 8.69 µM (inactive).

In the case of `COC(=O)C12CC(c3ccccc31)C1C(=O)OC(=O)C12` (centres undefined), the GI50 with DMS-114, in the assay with DMS-273, in the assay with LXFL 529, in the assay on SNB-78 and in the assay on M19-MEL was > 100 µM (inactive) each time.

With `COc1cc2c(c3nc4ccccc4nc13)-c1ccc(SC)c(=O)cc1[C@@H](NC(C)=O)CC2`, the GI50 in the assay on MDA-N was 0.0188 µM (active); in the assay with MDA-MB-435 it was 0.0166 µM (active).

Take `CC(C)(C)OC(=O)NC(Cc1ccc([N+](=O)[O-])cc1)C(=O)NC(CCCCNC(=O)OCc1ccccc1)C(=O)ON1C(=O)CCC1=O` (centres undefined): the GI50 with MDA-N and in the assay on MDA-MB-435 was > 100 µM (inactive) throughout.

Turning to `COC(=O)Cn1c(=O)oc2nc(-c3ccccc3)cc(C(F)(F)F)c21`, the GI50 in the assay on MDA-N is > 100 µM (inactive); in the assay on MDA-MB-435, 49.4 µM (inactive).

Turning to `CC(C)C(O)(C(=O)OCN1C(=O)C2C3C=CC(C2C1=O)C1C2C(=O)N(COC(=O)C(O)(C(C)C)C(C)O)C(=O)C2C31)C(C)O` (centres undefined), the GI50 with MDA-N and with MDA-MB-435 was > 100 µM (inactive) in each case.

Take `CC(=O)c1ccc(NC(=O)C(=O)C(C#N)CC(C)(C)C=O)cc1` (centres undefined): the GI50 in the assay on LXFL 529, in the assay with SNB-78 and in the assay with M19-MEL was > 100 µM (inactive) each time.

Regarding `O=P1(Oc2ccc(Cl)cc2Cl)Oc2cc3ccccc3cc2O1`, the GI50 with DMS-114 was 27.5 µM (inactive); in the assay on DMS-273 it was 59.6 µM (inactive); in the assay on SNB-78, > 100 µM (inactive); with HOP-18, 62.2 µM (inactive).

With `COc1cc(Nc2cc(Cl)cc(Cl)c2)nc(N)n1`, the GI50 was 27.1 µM (inactive) in the assay on MDA-N and 24.5 µM (inactive) in the assay with MDA-MB-435.

In the case of `CC1SC(=O)SC1C` (centres undefined), the GI50 in the assay with MDA-N and in the assay on MDA-MB-435 was > 100 µM (inactive) in each case.

Regarding `C#CCCCCC#CC1CCCC1C1=CC(=O)c2ccccc21` (centres undefined), the values for the GI50 in the assay on DMS-114, in the assay on DMS-273 and in the assay on HOP-18 were 1.48 µM (inactive), 3.49 µM (inactive) and 12.5 µM (inactive), respectively.

Take `CC(=O)OCC1(CNc2nc(N)ncc2C#N)CC(CCc2ccccc2)C1` (centres undefined): the GI50 in the assay with MDA-N is 28.6 µM (inactive); with MDA-MB-435, 26.2 µM (inactive).

With `COc1ccc(C(SCCO)(c2ccc(OC)cc2)c2ccc(OC)cc2)cc1`, the GI50 was 4.9 µM (inactive) in the assay on MDA-N and 5.79 µM (inactive) in the assay with MDA-MB-435.

In the case of `CC(Cc1ccc(Cl)cc1Cl)NO` (centres undefined), the GI50 in the assay on MDA-N and with MDA-MB-435 was > 100 µM (inactive) each time.

For the compound `CC1OC(O)CC(N(C)C)C1O.CC1OC(O)CCC1O.CCC1CC(O)c2c(O)c3c(c(O)c2C1O)C(=O)c1cccc(O)c1C3=O` (centres undefined), the GI50 with MDA-N is 0.0284 µM (active); in the assay on MDA-MB-435, 0.023 µM (active).

`CCN(CC)CCCNc1n[n+]([O-])c2ccccc2[n+]1[O-]`: the GI50 with MDA-N was 11.9 µM (inactive); in the assay on MDA-MB-435 it was 38.4 µM (inactive).

As for `NC(Cc1ccc(CP(=O)(O)O)cc1)C(=O)O` (centres undefined), the GI50 in the assay with MDA-N and in the assay with MDA-MB-435 was > 100 µM (inactive) each time.

Turning to `CCOC(=O)/C(C(=O)Nc1ccc(Cl)cc1)=C(/N)N1CCOCC1`, the GI50 in the assay on MDA-N and in the assay on MDA-MB-435 was > 100 µM (inactive) throughout.

`CC1=C(Br)C(=O)c2c(O)ccc(O)c2C1=O`: the figures for the GI50 in the assay with MDA-N and in the assay with MDA-MB-435 were 0.251 µM (active) and 0.204 µM (active), respectively.

Take `O=C(OC1C#CCSCC#C/C=C\1)c1ccc2c(c1)C(=O)c1ccccc1C2=O` (centres undefined): the GI50 in the assay with MDA-N and in the assay on MDA-MB-435 was > 100 µM (inactive) throughout.

Consider `COc1cc(Nc2cnc3cc(F)c(F)cc3n2)cc(OC)c1OC`, for which the GI50 with MDA-N and with MDA-MB-435 was > 100 µM (inactive) in each case.

For the compound `COC(=O)c1ccc(/N=N/N(C)CO)cc1`, the GI50 with DMS-114 is > 100 µM (inactive); in the assay with DMS-273 it was 63.1 µM (inactive); in the assay with LXFL 529, 43.6 µM (inactive); with SNB-78, 32.5 µM (inactive); with M19-MEL it was > 100 µM (inactive).

For the compound `O=C1CC2(CCNCC2)C(=O)N1N1CCCCC1`, the GI50 with MDA-N is > 100 µM (inactive).

As for `O=C(CSSCC(=O)Nc1ccc(Br)cc1)Nc1ccc(Br)cc1`, the GI50 in the assay on DMS-114 was 14 µM (inactive); in the assay on DMS-273, 16.5 µM (inactive); in the assay with LXFL 529, 16 µM (inactive); with SNB-78 it was 15.1 µM (inactive); in the assay with M19-MEL, 18.5 µM (inactive).

For `CC1CC2=C(C1)C(C1(C)C(=O)CC3C(C1=O)C3(C)C)C(C)C2=O` (centres undefined), the GI50 with MDA-N and with MDA-MB-435 was > 100 µM (inactive) each time.

Regarding `COC1OC2COC(c3ccccc3)OC2C(O)C1OC(=S)c1ccccc1` (centres undefined), the GI50 in the assay with MDA-N is 27.3 µM (inactive); in the assay on MDA-MB-435 it was 1.31 µM (inactive).

As for `Cc1nc(O)nc(N/N=C/c2ccc(Cl)cc2)c1C(=O)NC(C)(CO)CO`, the GI50 in the assay with MDA-N and in the assay on MDA-MB-435 was > 100 µM (inactive) throughout.

Take `Cc1cccc(C)c1NC(=O)CCC(=O)NC(N)=S`: the GI50 in the assay on LXFL 529, in the assay with M19-MEL and in the assay with HOP-18 was > 100 µM (inactive) each time.

Turning to `O=C1NC2(CCNCC2)Oc2ccccc21`, the GI50 with MDA-N and in the assay with MDA-MB-435 was > 100 µM (inactive) throughout.

For the compound `NCCCN(CCCCN(CCCN)C(=O)OCc1ccccc1)C(=O)OCc1ccccc1`, the GI50 in the assay on MDA-MB-435 was > 100 µM (inactive).

Take `NCOC(=O)Cc1ccc(Br)cc1`: in the assay with MDA-N, the GI50 is > 100 µM (inactive).

As to `O=C1N/C(=N/N=C/C(O)C(O)C(O)CO)N/C1=C\c1ccco1` (centres undefined), the GI50 with MDA-N and with MDA-MB-435 was > 100 µM (inactive) each time.

With `CC(=O)OC(OC(C)=O)c1c2ccccc2cc2ccccc12`, the GI50 in the assay on MDA-N was 22 µM (inactive); in the assay with MDA-MB-435, 24.6 µM (inactive).

Take `COc1c2occc2c(N)c2ccc(=O)oc12`: the GI50 with MDA-N and in the assay on MDA-MB-435 was > 100 µM (inactive) in each case.

Regarding `O=c1[nH]cc(COCC(F)(F)C(F)(F)C(F)(F)C(F)F)c(=O)[nH]1`, the GI50 with DMS-114, in the assay on LXFL 529, in the assay with M19-MEL and in the assay on HOP-18 was > 100 µM (inactive) each time.

`Nc1nc(N)c2ncn(Cc3ccccc3CO)c2n1`: in the assay on MDA-MB-435, the GI50 is > 100 µM (inactive).

For the compound `Cc1ccc(Nc2nc(NNC(=O)Cc3ccccc3)nc(NNC(=O)c3ccncc3)n2)cc1`, the GI50 with MDA-N was > 10 µM (inactive).

Consider `O=C1CCCCc2cccc(O)c21`, for which the GI50 in the assay on MDA-MB-435 is > 100 µM (inactive).

`COC(=O)C1=C(C(=O)OC)SC2(S1)C(C(=O)OC)=C(C(=O)OC)Sc1c2ss/c1=N\c1ccc(Cl)cc1`: the GI50 in the assay on MDA-N is 0.47 µM (active); in the assay on MDA-MB-435, 0.794 µM (active).

In the case of `CCCCc1c2c(nc3c1CCCC3=O)CCCC2`, the GI50 in the assay with DMS-114, with DMS-273, with LXFL 529 and with M19-MEL was > 100 µM (inactive) in each case.

Consider `Cc1cc(C)n(CCNCCn2nc(C)cc2C)n1`, for which the GI50 in the assay on DMS-114, with DMS-273, in the assay on LXFL 529, with SNB-78 and in the assay on M19-MEL was > 100 µM (inactive) each time.
